system: bovine cardiac myofibrils; test: Myofibril assay: PK/LDH-coupled steady-state ATPase activity of skinned bovine cardiac myofibrils; type: biochemical; details: Ca2+ activating to 75% of maximal rate
In short: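 Steady-state ATPase of detergent-skinned bovine left-ventricular myofibrils (1 mg/mL), PK/LDH-coupled NADH read at 340 nm, in PIPES/MgCl2 buffer pH 6.8 with 50 μM ATP, 0.6 mM EGTA and CaCl2 set for 50% or 75% activation. Inhibition of activity measured.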

Compared with `Cc1cc(N2CC3(C2)C(=O)N(C(C)C)CC(=O)N3Cc2ccc(C(F)(F)F)cc2)ccn1` [Compound 31, 8-isopropyl-2-(2-methylpyridin-4-yl)-5-(4-(trifluoromethyl)benzyl)-2,5,8-triazaspiro[3.5]-nonane-6,9-dione], `CC(C)N1CC(=O)N(Cc2ccc(C(F)(F)F)cc2)C2(CN(c3cc[nH]c(=O)c3)C2)C1=O` [Compound 48, 8-isopropyl-2-(2-oxo-1,2-dihydropyridin-4-yl)-5-(4-(trifluoromethyl)benzyl)-2,5,8-triazaspiro[3.5]-nonane-6,9-dione] is 1.7-fold lower in “CDMF75 IC15” value: 2.7 µM for the first, 1.6 µM for the second.

Compared with `CC(C)N1CC(=O)N(Cc2ccc(Cl)cc2)C2(CN(c3cscn3)C2)C1=O` [Compound 32, 5-(4-chlorobenzyl)-8-isopropyl-2-(thiazol-4-yl)-2,5,8-triazaspiro[3.5]-nonane-6,9-dione], `CC(C)N1CC(=O)N(Cc2ccc(Cl)cc2)C2(CN(c3cncs3)C2)C1=O` [Compound 33, 5-(4-chlorobenzyl)-8-isopropyl-2-(thiazol-5-yl)-2,5,8-triazaspiro[3.5]-nonane-6,9-dione] is 1.8-fold lower in “CDMF75 IC15” value: 9.6 µM for the first, 5.4 µM for the second.

Going from `CC(C)N1CC(=O)N(Cc2ccc(Cl)cc2)C2(CN(c3ccnc(C4CC4)c3)C2)C1=O` [Compound 34, 5-(4-chlorobenzyl)-2-(2-cyclopropylpyridin-4-yl)-8-isopropyl-2,5,8-triazaspiro[3.5]nonane-6,9-dione] to `CC(C)N1CC(=O)N(Cc2ccc(Cl)cc2)C2(CN(c3ccnc(C(=O)O)c3)C2)C1=O` [Compound 36, 4-(5-(4-chlorobenzyl)-8-isopropyl-6,9-dioxo-2,5,8-triazaspiro[3.5]nonan-2-yl)picolinic acid], the “CDMF75 IC15” value rises from 10.4 µM to 24.5 µM (2.4-fold).

`COC(=O)c1cc(N2CC3(C2)C(=O)N(C(C)C)CC(=O)N3Cc2ccc(Cl)cc2)ccn1` [Compound 35, methyl 4-(5-(4-chloro-benzyl)-8-isopropyl-6,9-dioxo-2,5,8-triazaspiro[3.5]nonan-2-yl)picolinate] and `CNC(=O)c1cc(N2CC3(C2)C(=O)N(C(C)C)CC(=O)N3Cc2ccc(Cl)cc2)ccn1` [Compound 38, 4-(5-(4-chlorobenzyl)-8-isopropyl-6,9-dioxo-2,5,8-triazaspiro-[3.5]nonan-2-yl)-N-methylpicolinamide] are within 1.5-fold of each other in “CDMF75 IC15” value: 14.6 µM for the first, 12.4 µM for the second.

`CC(C)N1CC(=O)N(Cc2ccc(Cl)cc2)C2(CN(c3ccnc(C(N)=O)c3)C2)C1=O` [Compound 37, 4-(5-(4-chlorobenzyl)-8-isopropyl-6,9-dioxo-2,5,8-triazaspiro[3.5]nonan-2-yl)picolinamide] and `CC(C)N1CC(=O)N(Cc2ccc(Cl)cc2)C2(CN(c3nc(C(N)=O)cs3)C2)C1=O` [Compound 40, 2-(5-(4-chlorobenzyl)-8-isopropyl-6,9-dioxo-2,5,8-triazaspiro[3.5]nonan-2-yl)thiazole-4-carboxamide] are within 1.5-fold of each other in “CDMF75 IC15” value: 6.0 µM for the first, 7.2 µM for the second.

`CC(C)N1CC(=O)N(Cc2ccc(Cl)cc2)C2(CN(c3nc(C(F)(F)F)cs3)C2)C1=O` [Compound 39, 5-(4-chlorobenzyl)-8-isopropyl-2-(4-(trifluoromethyl)thiazol-2-yl)-2,5,8-triazaspiro-[3.5]nonane-6,9-dione] and `Cc1csc(N2CC3(C2)C(=O)N(C(C)C)CC(=O)N3Cc2ccc(Cl)cc2)n1` [Compound 43, 5-(4-chlorobenzyl)-8-isopropyl-2-(4-methyl-thiazol-2-yl)-2,5,8-triazaspiro[3.5]nonane-6,9-dione] are within 1.5-fold of each other in “CDMF75 IC15” value: 3.9 µM for the first, 3.3 µM for the second.

Going from `CC(C)N1CC(=O)N(Cc2ccc(Cl)cc2)C2(CN(c3cn[nH]c3)C2)C1=O` [Compound 41, 5-(4-chlorobenzyl)-8-isopropyl-2-(1H-pyrazol-4-yl)-2,5,8-triazaspiro-[3.5]nonane-6,9-dione] to `CC(C)N1CC(=O)N(Cc2ccc(Cl)cc2)C2(CN(c3cnnc(Cl)c3)C2)C1=O` [Compound 61, 5-(4-chlorobenzyl)-2-(6-chloropyridazin-4-yl)-8-isopropyl-2,5,8-triazaspiro[3.5]nonane-6,9-dione], the “CDMF75 IC15” value rises from 7.0 µM to 22.9 µM (3.3-fold).

First: CC(C)N1CC(=O)N(Cc2ccc(Cl)cc2)C2(CN(c3ccn(C)c(=O)c3)C2)C1=O [Compound 42, 5-(4-chlorobenzyl)-8-isopropyl-2-(1-methyl-2-oxo-1,2-dihydropyridin-4-yl)-2,5,8-triazaspiro-[3.5]nonane-6,9-dione]
Second: Cc1cc(N2CC3(C2)C(=O)N(C(C)C)CC(=O)N3Cc2ccc(Cl)cc2)cc(C)n1 [Compound 49, 5-(4-chlorobenzyl)-2-(2,6-dimethylpyridin-4-yl)-8-isopropyl-2,5,8-triazaspiro[3.5]nonane-6,9-dione]
The “CDMF75 IC15” value of the first is 1.7-fold lower: 5.4 µM for the first, 9.3 µM for the second.

Going from `Cc1cnc(N2CC3(C2)C(=O)N(C(C)C)CC(=O)N3Cc2ccc(Cl)cc2)s1` [Compound 44, 5-(4-chlorobenzyl)-8-isopropyl-2-(5-methyl-thiazol-2-yl)-2,5,8-triazaspiro[3.5]nonane-6,9-dione] to `Cc1nnc(N2CC3(C2)C(=O)N(C(C)C)CC(=O)N3Cc2ccc(Cl)cc2)o1` [Compound 45, 5-(4-chlorobenzyl)-8-isopropyl-2-(5-methyl-1,3,4-oxadiazol-2-yl)-2,5,8-triazaspiro[3.5]-nonane-6,9-dione], the “CDMF75 IC15” value rises from 2.4 µM to 12.8 µM (5.3-fold).

Compared with `CC(C)N1CC(=O)N(Cc2ccc(C(F)(F)F)cc2)C2(CN(c3ccccn3)C2)C1=O` [Compound 46, 8-isopropyl-2-(pyridin-2-yl)-5-(4-(trifluoromethyl)-benzyl)-2,5,8-triazaspiro-[3.5]nonane-6,9-dione], `CC(C)CN1CC(=O)N(Cc2ccc(C(F)(F)F)cc2)C2(CN(c3ccc(C#N)cn3)C2)C1=O` [Compound 59, 6-(8-isobutyl-6,9-dioxo-5-(4-(trifluoromethyl)benzyl)-2,5,8-triazaspiro[3.5]-nonan-2-yl)nicotinonitrile] is 26-fold higher in “CDMF75 IC15” value: 0.9 µM for the first, 23.4 µM for the second.

Compared with `CC(C)N1CC(=O)N(Cc2ccc(Cl)cc2)C2(CN(c3nc4c(s3)COCC4)C2)C1=O` [Compound 47, 5-(4-chlorobenzyl)-2-(6,7-dihydro-4H-pyrano[4,3-d]thiazol-2-yl)-8-isopropyl-2,5,8-triazaspiro[3.5]-nonane-6,9-dione], `CC(C)N1CC(=O)N(Cc2ccc(Cl)cc2)C2(CN(c3ccc(Cl)nn3)C2)C1=O` [Compound 50, 5-(4-chlorobenzyl)-2-(6-chloropyridazin-3-yl)-8-isopropyl-2,5,8-triazaspiro[3.5]nonane-6,9-dione] is 1.6-fold higher in “CDMF75 IC15” value: 3.7 µM for the first, 5.8 µM for the second.

`COc1ccc(N2CC3(C2)C(=O)N(C(C)C)CC(=O)N3Cc2ccc(Cl)cc2)nn1` [Compound 51, 5-(4-chlorobenzyl)-8-isopropyl-2-(6-methoxypyridazin-3-yl)-2,5,8-triazaspiro-[3.5]nonane-6,9-dione] and `Cc1ccc(N2CC3(C2)C(=O)N(C(C)C)CC(=O)N3Cc2ccc(Cl)cc2)nn1` [Compound 55, 5-(4-chlorobenzyl)-8-isopropyl-2-(6-methylpyridazin-3-yl)-2,5,8-triazaspiro[3.5]-nonane-6,9-dione] are within 1.5-fold of each other in “CDMF75 IC15” value: 5.7 µM for the first, 6.7 µM for the second.

First: CC(C)N1CC(=O)N(Cc2ccc(Cl)cc2)C2(CN(c3ccc(=O)[nH]n3)C2)C1=O [Compound 52, 5-(4-chlorobenzyl)-8-isopropyl-2-(6-oxo-1,6-dihydropyridazin-3-yl)-2,5,8-triazaspiro[3.5]-nonane-6,9-dione]
Second: CC(C)N1CC(=O)N(Cc2ccc(Cl)cc2)C2(CN(c3ccc(C(N)=O)nn3)C2)C1=O [Compound 54, 6-(5-(4-chlorobenzyl)-8-isopropyl-6,9-dioxo-2,5,8-triazaspiro[3.5]-nonan-2-yl)pyridazine-3-carboxamide]
The “CDMF75 IC15” value of the first is 2.3-fold higher: 17.8 µM for the first, 7.8 µM for the second.

`CC(C)N1CC(=O)N(Cc2ccc(Cl)cc2)C2(CN(c3ccc(C(F)(F)F)nn3)C2)C1=O` [Compound 53, 5-(4-chlorobenzyl)-8-isopropyl-2-(6-(trifluoromethyl)pyridazin-3-yl)-2,5,8-triazaspiro-[3.5]nonane-6,9-dione] and `CC(C)N1CC(=O)N(Cc2ccc(Cl)cc2)C2(CN(c3cc(Cl)cnn3)C2)C1=O` [Compound 60, 5-(4-chlorobenzyl)-2-(5-chloropyridazin-3-yl)-8-isopropyl-2,5,8-triazaspiro[3.5]nonane-6,9-dione] are within 1.5-fold of each other in “CDMF75 IC15” value: 14.7 µM for the first, 14.3 µM for the second.

First: CC(C)N1CC(=O)N(Cc2ccc(Cl)cc2)C2(CN(c3cnc(Cl)cn3)C2)C1=O [Compound 56, 5-(4-chlorobenzyl)-2-(5-chloropyrazin-2-yl)-8-isopropyl-2,5,8-triazaspiro[3.5]nonane-6,9-dione]
Second: CC(C)N1CC(=O)N(Cc2ccc(Cl)cc2)C2(CN(c3ccc(C#N)cn3)C2)C1=O [Compound 63, 6-(5-(4-chlorobenzyl)-8-isopropyl-6,9-dioxo-2,5,8-triazaspiro[3.5]nonan-2-yl)nicotinonitrile]
The “CDMF75 IC15” value of the first is 3.6-fold higher: 18.3 µM for the first, 5.1 µM for the second.

Going from `CCN1CC(=O)N(Cc2ccc(C(F)(F)F)cc2)C2(CN(c3ccc(C#N)cn3)C2)C1=O` [Compound 57, 6-(8-ethyl-6,9-dioxo-5-(4-(trifluoromethyl)benzyl)-2,5,8-triazaspiro[3.5]-nonan-2-yl)nicotinonitrile] to `N#Cc1ccc(N2CC3(C2)C(=O)N(C2CCCC2)CC(=O)N3Cc2ccc(C(F)(F)F)cc2)nc1` [Compound 58, 6-(8-cyclopentyl-6,9-dioxo-5-(4-(trifluoromethyl)benzyl)-2,5,8-triazaspiro[3.5]-nonan-2-yl)nicotinonitrile], the “CDMF75 IC15” value falls from 33.3 µM to 4.1 µM (8.1-fold).

Going from `N#Cc1ccc(N2CC3(C2)C(=O)N(C2CCCCC2)CC(=O)N3Cc2ccc(C(F)(F)F)cc2)nc1` [Compound 62, 6-(8-cydohexyl-6,9-dioxo-5-(4-(trifluoromethyl)-benzyl)-2,5,8-triazaspiro[3.5]nonan-2-yl)nicotinonitrile] to `COC(=O)N1CC2(C1)C(=O)N(C(C)C)CC(=O)N2Cc1ccc(Cl)cc1` [Compound 64, methyl 5-(4-chlorobenzyl)-8-isopropyl-6,9-dioxo-2,5,8-triazaspiro[3.5]-nonane-2-carboxylate], the “CDMF75 IC15” value rises from 1.8 µM to 23.6 µM (13-fold).

Source: patent US11414424B2, “Cardiac sarcomere inhibitors” (Cytokinetics, Inc., priority 2018, dated 2022)
